Assay results published in EP3521435A1, “A HIGH STRINGENCY SELECTION SYSTEM FOR PROTEIN EXPRESSION IN PROLINE-AUXOTROPHIC CELLS” (Bayer AG, priority 2018, dated 2019).

Tested on: CHO-K1 cells
Test: Batch fermentation in shake flasks of human IgG1 expressing stable cell populations (Poros A-HPLC titer, viable cell density, viability)
Assay type: cell-based, Chinese hamster
Conditions: human IgG1, pJF1576, non-selecting conditions

NCCC[C@H](N)C(=O)O [Orn, L-Ornithine]
Batch titer day 7 (selected in CD-Fusion w/o Pro + 0.2 mM Orn + 10 µg/ml Puromycin): 173 mg/L
Batch titer day 7 (selected in CD-Fusion w/o Pro + 0.2 mM Orn): 120 mg/L
Batch titer day 7 (selected in CD-Fusion w/o Pro + 1 mM Orn + 10 µg/ml Puromycin): 159 mg/L
Batch titer day 7 (selected in CD-Fusion w/o Pro + 1 mM Orn): 135 mg/L
Batch titer day 7 (selected in CD-Fusion w/o Pro + 5 mM Orn + 10 µg/ml Puromycin): 38 mg/L
Batch titer day 7 (selected in CD-Fusion w/o Pro + 5 mM Orn): 9 mg/L
